Assay results as given in patent publication US6461997B1, “Triazole sulfones having herbicidal activity” (Monsanto Technology LLC, priority 1999, dated 2002).

What was measured:
SORVU (shattercane) = experiment: Pre-emergence herbicidal activity, warm season; format: in vivo, Sorghum vulgare; conditions: GR80 = lowest tested rate (300, 100, 30, 10 g/ha) with 80% or greater inhibition; approx. 14 days after treating; 30/21° C.
Procedure, shortened: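 Activity is expressed as the rate giving 80% inhibition, with 300, 100, 30 and 10 g/ha typically tested. An asterisk marks activity short of 80% at the top rate. Warm-season grasses were held at 30/21 °C; cool-season blackgrass and wild buckwheat at 18/13 °C; scoring at about 14 days.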

SETFA (giant foxtail) = experiment: Pre-plant incorporated (PPI) herbicidal activity, warm season; format: in vivo, Setaria faberi; conditions: for inhibition at 10 g/ha / inhibition at 30 g/ha / inhibition at 100 g/ha / inhibition at 300 g/ha / inhibition at 900 g/ha: Setaria faberi, PPI application, read-out: Percent inhibition SETFA; for PPI activity GR80, SETFA: pre-plant incorporated, lowest tested rate with 80% or greater inhibition, about 14 days
Procedure, shortened: (§1)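 Herbicidal effect is given as percent inhibition compared with untreated pots after roughly 14 days. The compound is incorporated into the cover soil layer rather than sprayed on the surface. Temperature regime is 30/21° C for warm-season and 18/13° C for cool-season species.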

SINAR (wild mustard) = experiment: Pre-plant incorporated (PPI) herbicidal activity, cool season; format: in vivo, Sinapis arvensis; conditions: for PPI activity GR80, SINAR: pre-plant incorporated, lowest tested rate with 80% or greater inhibition, about 14 days
Procedure, shortened: as §1

[1] = tested on: CHEAL (common lambsquarters); experiment: Pre-plant incorporated (PPI) herbicidal activity, warm season; format: in vivo, Chenopodium album; conditions: pre-plant incorporated; GR80 = lowest tested rate with 80% or greater inhibition; approx. 14 days after treating; 30/21° C.
Procedure, shortened: as §1

[2] = tested on: BRAPP (broadleaf signalgrass); experiment: as above; format: in vivo, Brachiaria platyphylla; conditions: for inhibition at 10 g/ha / inhibition at 30 g/ha / inhibition at 100 g/ha / inhibition at 300 g/ha / inhibition at 900 g/ha: Urochloa platyphylla, PPI application, read-out: Percent inhibition BRAPP; for PPI activity GR80, BRAPP: pre-plant incorporated, lowest tested rate with 80% or greater inhibition, about 14 days
Procedure, shortened: as §1

[3] = tested on: PANMI (wild proso millet); experiment: as above; format: in vivo, Panicum miliaceum; conditions: for inhibition at 10 g/ha / inhibition at 30 g/ha / inhibition at 100 g/ha / inhibition at 300 g/ha / inhibition at 900 g/ha: Panicum miliaceum, PPI application, read-out: Percent inhibition PANMI; for PPI activity GR80, PANMI: pre-plant incorporated, lowest tested rate with 80% or greater inhibition, about 14 days
Procedure, shortened: as §1

AMARE (redroot pigweed) = experiment: Pre-emergence herbicidal activity, warm season; format: in vivo, Amaranthus retroflexus; conditions: GR80 = lowest tested rate (300, 100, 30, 10 g/ha) with 80% or greater inhibition; approx. 14 days after treating; 30/21° C.
Procedure, shortened: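 Seeds sown in sterilised fertilised topsoil received surface-applied compound in 50:50 acetone/water, typically at 300, 100, 30 and 10 g/ha, then greenhouse-grown at 30/21° C (warm-season species) or 18/13° C (cool-season species). Percent inhibition versus untreated plants was scored at about 14 days, giving GR80; an asterisk marks activity short of 80% at the top rate.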

[4] = tested on: AGRRE (quackgrass (seedling)); experiment: Pre-plant incorporated (PPI) herbicidal activity, cool season; format: in vivo, Elymus repens; conditions: for inhibition at 10 g/ha / inhibition at 30 g/ha / inhibition at 100 g/ha / inhibition at 300 g/ha / inhibition at 900 g/ha: Elymus repens, weed, PPI application, read-out: Percent inhibition AGRRE; for PPI activity GR80, AGRRE: pre-plant incorporated, lowest tested rate with 80% or greater inhibition, about 14 days
Procedure, shortened: as §1

wheat (TRZAW) = experiment: Selectivity test, PPI, cool season crop; format: in vivo, Triticum aestivum; conditions: Triticum aestivum, PPI application, read-out: Percent inhibition TRZAW
Procedure, shortened: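 Pre-plant incorporated: compound in organic solvent sprayed onto cover soil, mixed and laid over seeds; untreated soil for controls. Greenhouse after treatment: warm season 30/21° C., cool season 18/13° C. day/night. Percent inhibition versus untreated plants scored about 14 days after planting.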

DIGSA (large crabgrass) = experiment: Pre-emergence herbicidal activity, warm season; format: in vivo, Digitaria sanguinalis; conditions: GR80 = lowest tested rate (300, 100, 30, 10 g/ha) with 80% or greater inhibition; approx. 14 days after treating; 30/21° C.
Procedure, shortened: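 Each pot received seeds on sterilized fertilized topsoil, a soil cover, and a surface spray of compound (300–10 g/ha, acetone/water 50:50). Plants grew about 14 days at 30/21 °C (PANMI, DIGSA) or 18/13 °C (ALOMY, POLCO) before inhibition was rated against untreated pots to give GR80.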

[5] = Brassica, weed, PPI application, read-out: Percent inhibition SINAR

Row | SMILES | Pre-emergence activity (GR80) SORVU (SORVU (shattercane)) | inhibition at 10 g/ha (SETFA (giant foxtail)) [%] | inhibition at 30 g/ha (SETFA (giant foxtail)) [%] | inhibition at 100 g/ha (SETFA (giant foxtail)) [%] | inhibition at 300 g/ha (SETFA (giant foxtail)) [%] | inhibition at 900 g/ha (SETFA (giant foxtail)) [%] | PPI activity GR80, SETFA (SETFA (giant foxtail)) [g/ha] | inhibition at 10 g/ha (SINAR (wild mustard); [5]) [%] | inhibition at 100 g/ha (SINAR (wild mustard); [5]) [%] | inhibition at 300 g/ha (SINAR (wild mustard); [5]) [%] | inhibition at 900 g/ha (SINAR (wild mustard); [5]) [%] | PPI activity GR80, SINAR (SINAR (wild mustard)) [g/ha] | PPI activity (GR80) CHEAL [1] [g/ha] | inhibition at 10 g/ha [2] [%] | inhibition at 30 g/ha [2] [%] | inhibition at 100 g/ha [2] [%] | inhibition at 300 g/ha [2] [%] | inhibition at 900 g/ha [2] [%] | PPI activity GR80, BRAPP [2] [g/ha] | inhibition at 10 g/ha [3] [%] | also measured
1 | C=C(C)CC(F)(F)S(=O)(=O)c1ncn(C(=O)N(CC)CC)n1 [Example 18] | * (activity observed, at least at highest rate, but <80% inhibition) | 100 | 90 | 90 | 100 | 100 | 100 | 100 | 80 | 100 | 100 | 10 | 30 | 0 | 0 | 0 | 100 | 100 | 100 | 0 | inhibition at 30 g/ha (SINAR (wild mustard); Brassica, weed, PPI application, 30 g/ha, read-out: Percent inhibition SINAR): 100%; inhibition at 30 g/ha [3]: 40%; inhibition at 100 g/ha [3]: 100%; inhibition at 300 g/ha [3]: 100%; inhibition at 900 g/ha [3]: 100%; PPI activity GR80, PANMI [3]: 100 g/ha; Pre-emergence activity (GR80) AMARE (AMARE (redroot pigweed)): 300 g/ha; inhibition at 10 g/ha [4]: 0%; inhibition at 30 g/ha [4]: 30%; inhibition at 100 g/ha [4]: 20%; inhibition at 300 g/ha [4]: 20%; inhibition at 900 g/ha [4]: 80%; PPI activity GR80, AGRRE [4]: 100 g/ha; inhibition at 10 g/ha (wheat (TRZAW)): 0%; inhibition at 30 g/ha (wheat (TRZAW)): 0%; inhibition at 100 g/ha (wheat (TRZAW)): 0%; inhibition at 300 g/ha (wheat (TRZAW)): 30%; inhibition at 900 g/ha (wheat (TRZAW)): 60%; Pre-emergence activity (GR80) DIGSA (DIGSA (large crabgrass)): 100 g/ha
2 | C=C(Br)CC(F)(F)S(=O)(=O)c1ncn(C(=O)N(CC)CC)n1 [Example 19] | 300 g/ha | 90 | 100 | 90 | 100 | 100 | 30 | 100 | 100 | 100 | 100 | 300 | 100 | 0 | 0 | 30 | 100 | 100 | 300 | 0 | inhibition at 30 g/ha [3]: 60%; inhibition at 100 g/ha [3]: 100%; inhibition at 300 g/ha [3]: 100%; inhibition at 900 g/ha [3]: 100%; PPI activity GR80, PANMI [3]: 100 g/ha; Pre-emergence activity (GR80) AMARE (AMARE (redroot pigweed)): * (activity observed, at least at highest rate, but <80% inhibition); inhibition at 10 g/ha [4]: 0%; inhibition at 30 g/ha [4]: 0%; inhibition at 100 g/ha [4]: 10%; inhibition at 300 g/ha [4]: 20%; inhibition at 900 g/ha [4]: 80%; PPI activity GR80, AGRRE [4]: 100 g/ha; inhibition at 10 g/ha (wheat (TRZAW)): 0%; inhibition at 30 g/ha (wheat (TRZAW)): 0%; inhibition at 100 g/ha (wheat (TRZAW)): 30%; inhibition at 300 g/ha (wheat (TRZAW)): 70%; inhibition at 900 g/ha (wheat (TRZAW)): 60%; Pre-emergence activity (GR80) DIGSA (DIGSA (large crabgrass)): 100 g/ha
